Experiment: pKa and acid-form fraction of lactic acid
Type: physicochemical
Conditions: pH of 2.2
Text: In some example embodiments of formulations including an allergen neutralizing agent, the pH of the formulations can be kept low. A low pH can enhance the organic acid efficacy (e.g., lactic acid efficacy) in neutralization of airborne allergens. Typically, pH is kept a least 1 unit below pKa of the organic acid to ensure the majority (e.g., at least 90%) of acid stays in the active (conjugate acid) form. […].
In the case of `CC(O)C(=O)O` (centres unmarked) [lactic acid], the “fraction of lactic acid in the acidic form” value is reported as “at least 95%”.

Experiment: not given
Conditions: cited from earlier work
For `CCCCCC(=O)O` [hexanoic acid], the “Solubility in water (g of compound in 100 g of water at ~20° C.)” value (from here on “Solubility in water”) is listed as 1.03 g of compound in 100 g of water.

Same assay, conditions: ~20° C.; cited from earlier work
For `CC(=O)CCC(=O)O` [levulinic acid], the “Solubility in water” value is given as 79.13 g of compound in 100 g of water. For `CC(=O)C(=O)O` [pyruvic acid], the “Solubility in water” value is given as 100 g of compound in 100 g of water. For `C/C=C/C=C/C(=O)O` [sorbic acid], the “Solubility in water” value is listed as 0.156 g of compound in 100 g of water. For `O=C(O)/C=C/C(=O)O` [fumaric acid], the “Solubility in water” value is given as 0.7 g of compound in 100 g of water. In the case of `CS(=O)(=O)O` [methane sulfonic acid], the “Solubility in water” value is listed as 100 g of compound in 100 g of water. In the case of `O=C(O)/C=C\C(=O)O` [maleic acid], the “Solubility in water” value is given as 47.88 g of compound in 100 g of water. For `CCCCCCC(=O)O` [heptanoic acid], the “Solubility in water” value is given as 0.2 g of compound in 100 g of water. For `O=C(O)CC(O)C(=O)O` (centres unmarked) [malic acid], the “Solubility in water” value is listed as 64.7 g of compound in 100 g of water. For `CCCCC(=O)O` [valeric acid], the “Solubility in water” value is given as 3.75 g of compound in 100 g of water.

From US20250368923A1, “PRE-MOISTENED ARTICLES FOR REFRESHING CLOTHING IN THE DRYER” (The Clorox Company, priority 2024, published 2025)
